≈ marks a conversion by molar mass, not a printed value. Calls of active or inactive are those of the source. The calls are words filed in the database; no cut-off is given here.
Assays:
Assay type in all cases: functional
[1] = test system: A549; assay: Growth inhibition of human A549/ATCC cells at 10^-5 M incubated for 48 hrs by sulforhodamine B assay relative to control
[2] = test system: CAKI-1; assay: Growth inhibition of human Caki1 cells at 10^-5 M incubated for 48 hrs by sulforhodamine B assay relative to control
[3] = test system: HT-29; assay: Growth inhibition of human HT-29 cells at 10^-5 M incubated for 48 hrs by sulforhodamine B assay relative to control
[4] = test system: MOLT-4; assay: Growth inhibition of human MOLT4 cells at 10^-5 M incubated for 48 hrs by sulforhodamine B assay relative to control
[5] = test system: SNB-19; assay: Growth inhibition of human SNB19 cells at 10^-5 M incubated for 48 hrs by sulforhodamine B assay relative to control
[6] = test system: DU-145; assay: Growth inhibition of human DU145 cells at 10^-5 M incubated for 48 hrs by sulforhodamine B assay relative to control
[7] = test system: HCC 2998; assay: Growth inhibition of human HCC2998 cells at 10^-5 M incubated for 48 hrs by sulforhodamine B assay relative to control
[8] = test system: Candida albicans; assay: Antifungal activity against Candida albicans after 24 hrs by serial dilution method
[9] = test system: BT-549; assay: Growth inhibition of human BT549 cells at 10^-5 M incubated for 48 hrs by sulforhodamine B assay relative to control
[10] = test system: RXF 393; assay: Growth inhibition of human RXF393 cells at 10^-5 M incubated for 48 hrs by sulforhodamine B assay relative to control
[11] = test system: OVCAR-5; assay: Growth inhibition of human OVCAR5 cells at 10^-5 M incubated for 48 hrs by sulforhodamine B assay relative to control
[12] = test system: U-251; assay: Growth inhibition of human U251 cells at 10^-5 M incubated for 48 hrs by sulforhodamine B assay relative to control
[13] = test system: SK-OV-3; assay: Growth inhibition of human SKOV3 cells at 10^-5 M incubated for 48 hrs by sulforhodamine B assay relative to control
[14] = test system: M14; assay: Growth inhibition of human M14 cells at 10^-5 M incubated for 48 hrs by sulforhodamine B assay relative to control
[15] = test system: UO-31; assay: Growth inhibition of human UO31 cells at 10^-5 M incubated for 48 hrs by sulforhodamine B assay relative to control
[16] = test system: SK-MEL-2; assay: Growth inhibition of human SK-MEL-2 cells at 10^-5 M incubated for 48 hrs by sulforhodamine B assay relative to control
[17] = test system: SK-MEL-5; assay: Growth inhibition of human SK-MEL-5 cells at 10^-5 M incubated for 48 hrs by sulforhodamine B assay relative to control
[18] = test system: OVCAR-8; assay: Growth inhibition of human OVCAR8 cells at 10^-5 M incubated for 48 hrs by sulforhodamine B assay relative to control
[19] = test system: Aspergillus fumigatus; assay: Antifungal activity against Aspergillus fumigatus after 24 hrs by serial dilution method
[20] = test system: SF-268; assay: Growth inhibition of human SF268 cells at 10^-5 M incubated for 48 hrs by sulforhodamine B assay relative to control
[21] = test system: NCI-H226; assay: Growth inhibition of human NCI-H226 cells at 10^-5 M incubated for 48 hrs by sulforhodamine B assay relative to control
[22] = test system: HL-60(TB); assay: Growth inhibition of human HL-60(TB) cells at 10^-5 M incubated for 48 hrs by sulforhodamine B assay relative to control
[23] = test system: UACC-62; assay: Growth inhibition of human UACC62 cells at 10^-5 M incubated for 48 hrs by sulforhodamine B assay relative to control
[24] = test system: Candida albicans; assay: Antifungal activity against Candida albicans at 100 ug/ml by disc diffusion method; conditions: read-out: IZ
[25] = test system: NCI-H522; assay: Growth inhibition of human NCI-H522 cells at 10^-5 M incubated for 48 hrs by sulforhodamine B assay relative to control
[26] = test system: NCI-H23; assay: Growth inhibition of human NCI-H23 cells at 10^-5 M incubated for 48 hrs by sulforhodamine B assay relative to control
[27] = test system: IGROV-1; assay: Growth inhibition of human IGROV1 cells at 10^-5 M incubated for 48 hrs by sulforhodamine B assay relative to control
[28] = test system: SR; assay: Growth inhibition of human SR cells at 10^-5 M incubated for 48 hrs by sulforhodamine B assay relative to control
[29] = test system: T47D; assay: Growth inhibition of human T47D cells at 10^-5 M incubated for 48 hrs by sulforhodamine B assay relative to control
[30] = test system: MCF7; assay: Growth inhibition of human MCF7 cells at 10^-5 M incubated for 48 hrs by sulforhodamine B assay relative to control
[31] = test system: NCI-H460; assay: Growth inhibition of human NCI-H460 cells at 10^-5 M incubated for 48 hrs by sulforhodamine B assay relative to control
[32] = test system: Malme-3M; assay: Growth inhibition of human MALME-3M cells at 10^-5 M incubated for 48 hrs by sulforhodamine B assay relative to control
[33] = test system: SK-MEL-28; assay: Growth inhibition of human SK-MEL-28 cells at 10^-5 M incubated for 48 hrs by sulforhodamine B assay relative to control
[34] = test system: MDA-MB-435; assay: Growth inhibition of human MDA-MB-435 cells at 10^-5 M incubated for 48 hrs by sulforhodamine B assay relative to control
[35] = test system: HCT-116; assay: Growth inhibition of human HCT116 cells at 10^-5 M incubated for 48 hrs by sulforhodamine B assay relative to control
[36] = test system: UACC-257; assay: Growth inhibition of human UACC257 cells at 10^-5 M incubated for 48 hrs by sulforhodamine B assay relative to control
[37] = test system: HCT-15; assay: Growth inhibition of human HCT15 cells at 10^-5 M incubated for 48 hrs by sulforhodamine B assay relative to control
[38] = test system: OVCAR-3; assay: Growth inhibition of human OVCAR3 cells at 10^-5 M incubated for 48 hrs by sulforhodamine B assay relative to control
[39] = test system: MDA-MB-468; assay: Growth inhibition of human MDA-MB-468 cells at 10^-5 M incubated for 48 hrs by sulforhodamine B assay relative to control
[40] = test system: COLO 205; assay: Growth inhibition of human COLO205 cells at 10^-5 M incubated for 48 hrs by sulforhodamine B assay relative to control
[41] = test system: NCI/ADR-RES; assay: Growth inhibition of human NCI-ADR-RES cells at 10^-5 M incubated for 48 hrs by sulforhodamine B assay relative to control
[42] = test system: SN12C; assay: Growth inhibition of human SN12C cells at 10^-5 M incubated for 48 hrs by sulforhodamine B assay relative to control
[43] = test system: K562; assay: Growth inhibition of human K562 cells at 10^-5 M incubated for 48 hrs by sulforhodamine B assay relative to control
[44] = test system: SW-620; assay: Growth inhibition of human SW620 cells at 10^-5 M incubated for 48 hrs by sulforhodamine B assay relative to control

## Clc1nc2ccccc2cc1Cn1nnc(Cc2ccccc2)n1
[1]; A549, 48 h, read-out: GI
  inhibition of growth at 10 µM: 46.1%
[2]; CAKI-1, 48 h, read-out: GI
  inhibition of growth at 10 µM: 59.5%
[3]; HT-29, 48 h, read-out: GI
  inhibition of growth at 10 µM: 28.4%
[4]; MOLT-4, 48 h, read-out: GI
  inhibition of growth at 10 µM: 56.9%
[5]; SNB-19, 48 h, read-out: GI
  inhibition of growth at 10 µM: 10.2%
[6]; DU-145, 48 h, read-out: GI
  inhibition of growth at 10 µM: 24.8%
[7]; HCC 2998, 48 h, read-out: GI
  inhibition of growth at 10 µM: 18.7%
[8]
  MIC: 25 µg/mL (≈ 74.4 µM)
[9]; BT-549, 48 h, read-out: GI
  inhibition of growth at 10 µM: 61.1%
[10]; RXF 393, 48 h, read-out: GI
  inhibition of growth at 10 µM: 16.1%
[11]; OVCAR-5, 48 h, read-out: GI
  inhibition of growth at 10 µM: -4.25%
[12]; U-251, 48 h, read-out: GI
  inhibition of growth at 10 µM: 23.7%
[13]; SK-OV-3, 48 h, read-out: GI
  inhibition of growth at 10 µM: 42.6%
[14]; M14, 48 h, read-out: GI
  inhibition of growth at 10 µM: 26.4%
[15]; UO-31, 48 h, read-out: GI
  inhibition of growth at 10 µM: 181%
[16]; SK-MEL-2, 48 h, read-out: GI
  inhibition of growth at 10 µM: 41.2%
[17]; SK-MEL-5, 48 h, read-out: GI
  inhibition of growth at 10 µM: 99.3%
[18]; OVCAR-8, 48 h, read-out: GI
  inhibition of growth at 10 µM: 28.4%
[19]
  MIC: 50 µg/mL (≈ 149 µM)
[20]; SF-268, 48 h, read-out: GI
  inhibition of growth at 10 µM: 34.3%
[21]; NCI-H226, 48 h, read-out: GI
  inhibition of growth at 10 µM: 41.8%
[22]; HL-60, 48 h, read-out: GI
  inhibition of growth at 10 µM: 12.1%
[23]; UACC-62, 48 h, read-out: GI
  inhibition of growth at 10 µM: 48.3%
[24]
  zone of inhibition at 100 µg/mL: 10 mm
[25]; NCI-H522, 48 h, read-out: GI
  inhibition of growth at 10 µM: 57.9%
[26]; NCI-H23, 48 h, read-out: GI
  inhibition of growth at 10 µM: 54.5%
[27]; IGROV-1, 48 h, read-out: GI
  inhibition of growth at 10 µM: 49.1%
[28]; read-out: GI
  inhibition of growth at 10 µM: 63%
[29]; read-out: GI
  inhibition of growth at 10 µM: 73.9%
[30]; MCF7, 48 h, read-out: GI
  inhibition of growth at 10 µM: 54.2%
[31]; NCI-H460, 48 h, read-out: GI
  inhibition of growth at 10 µM: 25.7%
[32]; read-out: GI
  inhibition of growth at 10 µM: 34.4%
[33]; SK-MEL-28, 48 h, read-out: GI
  inhibition of growth at 10 µM: 15.3%
[34]; MDA-MB-435, 48 h, read-out: GI
  inhibition of growth at 10 µM: 34.7%
[35]; HCT-116, 48 h, read-out: GI
  inhibition of growth at 10 µM: 64.9%
[36]; UACC-257, 48 h, read-out: GI
  inhibition of growth at 10 µM: 46.4%
[37]; HCT-15, 48 h, read-out: GI
  inhibition of growth at 10 µM: 35%
[38]; OVCAR-3, 48 h, read-out: GI
  inhibition of growth at 10 µM: 40.5%
[39]; MDA-MB-468, 48 h, read-out: GI
  inhibition of growth at 10 µM: 88.9%
[40]; COLO 205, 48 h, read-out: GI
  inhibition of growth at 10 µM: 17.3%
[41]; read-out: GI
  inhibition of growth at 10 µM: 47.9%
[42]; read-out: GI
  inhibition of growth at 10 µM: 29.7%
[43]; K562, 48 h, read-out: GI
  inhibition of growth at 10 µM: 44.8%
[44]; SW-620, 48 h, read-out: GI
  inhibition of growth at 10 µM: 13.4%

## Clc1nc2ccccc2cc1Cn1nnc(CSc2ccccc2)n1
[1]
  growth inhibition (GI): Active
[2]
  growth inhibition (GI): Active
[3]
  growth inhibition (GI): Active
[4]
  growth inhibition (GI): Active
[5]
  growth inhibition (GI): Active
[6]
  growth inhibition (GI): Active
[7]
  growth inhibition (GI): Active
[8]
  MIC: 10 µg/mL (≈ 27.2 µM)
[9]
  growth inhibition (GI): Active
[10]
  growth inhibition (GI): Active
[11]
  growth inhibition (GI): Active
[12]
  growth inhibition (GI): Active
[13]
  growth inhibition (GI): Active
[14]
  growth inhibition (GI): Active
[15]
  growth inhibition (GI): Active
[16]
  growth inhibition (GI): Active
[17]
  growth inhibition (GI): Active
[18]
  growth inhibition (GI): Active
[19]
  MIC: 25 µg/mL (≈ 68 µM)
[20]
  growth inhibition (GI): Active
[21]
  growth inhibition (GI): Active
[22]
  growth inhibition (GI): Active
[23]
  growth inhibition (GI): Active
[24]
  zone of inhibition at 100 µg/mL: 10 mm
[25]
  growth inhibition (GI): Active
[26]
  growth inhibition (GI): Active
[27]
  growth inhibition (GI): Active
[28]
  growth inhibition (GI): Active
[29]
  growth inhibition (GI): Active
[30]
  growth inhibition (GI): Active
[31]
  growth inhibition (GI): Active
[32]
  growth inhibition (GI): Active
[33]
  growth inhibition (GI): Active
[34]
  growth inhibition (GI): Active
[35]
  growth inhibition (GI): Active
[36]
  growth inhibition (GI): Active
[37]
  growth inhibition (GI): Active
[38]
  growth inhibition (GI): Active
[39]
  growth inhibition (GI): Active
[40]
  growth inhibition (GI): Active
[41]
  growth inhibition (GI): Active
[42]
  growth inhibition (GI): Active
[43]
  growth inhibition (GI): Active
[44]
  growth inhibition (GI): Active

From ChEMBL document CHEMBL4004849, “Tetrazolylmethyl quinolines: Design, docking studies, synthesis, anticancer and antifungal analyses” (2017)
